Assay results as given in patent US11891634B2, “PDE5A destabilizing domains” (The Board of Trustees of the Leland Stanford Junior …, priority 2017, dated 2024).

Key:
Type in all cases: cell-based, human
[1] = test system: HCT 116 cells transduced with the PDE5A DD derived GFP constructs; assay: Response to Tadalafil, GFP expression by FACS in HCT116; conditions: for MFI / Stabilization ratio with Tadalafil: 48 hours, HCT116
Method: (§1) PDE5AN (#3) was cloned as AcGFP fusion into pELNS vector carrying mCherry marker and packaged in lentiviral vectors. HCT116 cells were transduced with the construct and stable integrants were selected by cell sorting using mCherry marker. Cells were treated with vehicle (dimethyl sulfoxide, DMSO) or varying doses of Tadalafil (TDF) for 48 hrs with doses ranging from 0.01 μM to 100 μM. Following the treatment, cells were analyzed for GFP expression using FACS. Basal expression was calculated as the ratio of GFP signal in the absence of ligand for a given cell line to auto fluorescence of parental HCT-116 cells. Stabilization ratio was calculated as the ratio of the GFP signal observed in the presence of stabilizing ligand to the signal from the same cell line in the absence of ligand.
HCT 116 cells transduced with the PDE5A DD derived GFP constructs were also tested with increasing doses of Tadalafil. The HCT116 cells were incubated for 48 hours with Tadalafil starting at dose 0.01 μM to 100 μM. The GFP intensity of the Tadalafil treated samples was compared to the parental untransduced HCT116 and DMSO treated cells for each construct. The mean fluorescence intensity was calculated for each sample and used to calculate the stabilization ratios as well as the basal expression for each construct. The stabilization ratios are shown in Table 19 and Table 20 and the basal expression is show in Table 21.

[2] = test system: HCT 116 cells transduced with the PDE5A DD derived GFP constructs; assay: Response to Vardenafil, GFP expression by FACS in HCT116; conditions: for MFI / Stabilization ratio with Vardenafil: 48 hours, HCT116
Method: as §1, with “Mutations were created in PDE5A (535-860) catalytic domain using site directed mutagenesis and the mutants were” for “PDE5AN (#3) was”, “constructs” for “construct”, “10 μM Vardenafil (VDF)” for “varying doses of Tadalafil (TDF)”, “hours.” for “hrs with doses ranging from 0.01 μM to 100 μM.”
HCT 116 cells transduced with the PDE5A DD derived GFP constructs were also tested with increasing doses of Vardenafil. The HCT116 cells were incubated for 48 hours with Vardenafil starting at a dose of 0.002 μM to 30 μM. The GFP intensity of the Vardenafil treated samples was compared to the parental untransduced HCT116 and DMSO treated cells for each construct. The mean fluorescence intensity was calculated for each sample and used to calculate the stabilization ratios as well as the basal expression for each construct. The GFP expression was measured using flow cytometry and the mean fluorescence intensity (MFI) was calculated for each sample. The stabilization ratios are shown in Table 13 and Table 14 and the basal expression is show in Table 15.

[3] = test system: HCT116 cells transduced with the constructs; assay: Response to Sildenafil, GFP expression by flow cytometry in HCT116; conditions: for MFI / Stabilization ratio with Sildenafil: 48 hours, HCT116
Method: Similar experiments were performed in HCT116 cells using sildenafil. The above-mentioned DDs were cloned as AcGFP fusion into pELNS vector carrying mCherry marker and packaged in lentiviral vectors. HCT116 cells were transduced with the constructs and stable integrants were selected by cell sorting using mCherry marker. Cells were treated with sildenafil at the following μM concentrations: 0.01, 0.02, 0.05, 0.14, 0.41, 1.23, 3.7, 11.11, 33.33, and 100 for a duration of 48 hours. The fluorescence was analyzed by flow cytometry and the mean fluorescence intensity was calculated for all samples. […] The stabilization ratios are shown in Table 24 and Table 25 and the basal expression is show in Table 26.

“PDE5AC (#25): AcGFP fused to C-terminal DD 535-860 of PDE5A (Q541R, F559L, Q589R, H678R, I824T), SEQ ID NO. 35” was tested, and the MFI ([1]; DMSO (no Tadalafil)) was 9297, the “Basal expression” value ([1]; Table 21, MFI with DMSO / parental HCT116, Tadalafil experiment) was 7.26 and the “Stabilization ratio with Tadalafil” value ([1]; Tadalafil 0.01 μM vs DMSO) was 1.0. The MFI ([1]; Tadalafil 0.01 μM) was 9233, the “Stabilization ratio with Tadalafil” value ([1]; Tadalafil 0.02 μM vs DMSO) was 1.0 and the MFI ([1]; Tadalafil 0.02 μM) was 8860. For the same substance, the “Stabilization ratio with Tadalafil” value ([1]; Tadalafil 0.05 μM vs DMSO) was 1.0, the MFI ([1]; Tadalafil 0.05 μM) was 9404 and the “Stabilization ratio with Tadalafil” value ([1]; Tadalafil 0.14 μM vs DMSO) was 1.0. The MFI ([1]; Tadalafil 0.14 μM) was 9478, the “Stabilization ratio with Tadalafil” value ([1]; Tadalafil 0.41 μM vs DMSO) was 1.1 and the MFI ([1]; Tadalafil 0.41 μM) was 9858. The “Stabilization ratio with Tadalafil” value ([1]; Tadalafil 1.23 μM vs DMSO) was 1.3, the MFI ([1]; Tadalafil 1.23 μM) was 12432 and the “Stabilization ratio with Tadalafil” value ([1]; Tadalafil 3.7 μM vs DMSO) was 2.1. The MFI ([1]; Tadalafil 3.7 μM) was 19294, the “Stabilization ratio with Tadalafil” value ([1]; Tadalafil 11.11 μM vs DMSO) was 3.4 and the MFI ([1]; Tadalafil 11.11 μM) was 31763. For the same substance, the “Stabilization ratio with Tadalafil” value ([1]; Tadalafil 33.33 μM vs DMSO) was 5.8, the MFI ([1]; Tadalafil 33.33 μM) was 54151 and the “Stabilization ratio with Tadalafil” value ([1]; Tadalafil 100 μM vs DMSO) was 7.6. The “Stabilization ratio with Tadalafil” value ([1]; Tadalafil 100 μM vs DMSO, listed as PDE5AN (#25)) was “highest stabilization ratio”, the MFI ([1]; Tadalafil 100 μM) was 70389 and the MFI ([2]; DMSO (no Vardenafil)) was 9555. For the same substance, the Basal ([2]; Table 15, MFI with DMSO / parental HCT116, Vardenafil experiment) was 4.89, the “Stabilization ratio with Vardenafil” value ([2]; Vardenafil 0.002 μM vs DMSO) was 1.0 and the MFI ([2]; Vardenafil 0.002 μM) was 9737. For the same substance, the “Stabilization ratio with Vardenafil” value ([2]; Vardenafil 0.005 μM vs DMSO) was 1.0, the MFI ([2]; Vardenafil 0.005 μM) was 9694 and the “Stabilization ratio with Vardenafil” value ([2]; Vardenafil 0.014 μM vs DMSO) was 1.0. For the same substance, the MFI ([2]; Vardenafil 0.014 μM) was 9767, the “Stabilization ratio with Vardenafil” value ([2]; Vardenafil 0.041 μM vs DMSO) was 1.1 and the MFI ([2]; Vardenafil 0.041 μM) was 10468. The “Stabilization ratio with Vardenafil” value ([2]; Vardenafil 0.123 μM vs DMSO) was 1.4, the MFI ([2]; Vardenafil 0.123 μM) was 13348 and the “Stabilization ratio with Vardenafil” value ([2]; Vardenafil 0.370 μM vs DMSO) was 2.1. For the same substance, the MFI ([2]; Vardenafil 0.370 μM) was 20522, the “Stabilization ratio with Vardenafil” value ([2]; Vardenafil 1.111 μM vs DMSO) was 4.1 and the MFI ([2]; Vardenafil 1.111 μM) was 38958. The “Stabilization ratio with Vardenafil” value ([2]; Vardenafil 3.333 μM vs DMSO) was 6.9, the MFI ([2]; Vardenafil 3.333 μM) was 66337 and the “Stabilization ratio with Vardenafil” value ([2]; Vardenafil 10 μM vs DMSO) was 9.9. For the same substance, the MFI ([2]; Vardenafil 10 μM) was 94642, the “Stabilization ratio with Vardenafil” value ([2]; Vardenafil 30 μM vs DMSO) was 12.7 and the MFI ([2]; Vardenafil 30 μM) was 120927. The MFI ([3]; DMSO (no Sildenafil)) was 10217, the “Stabilization ratio with Sildenafil” value ([3]; Sildenafil 0.01 μM vs DMSO) was 1.0 and the MFI ([3]; Sildenafil 0.01 μM) was 10169. The “Stabilization ratio with Sildenafil” value ([3]; Sildenafil 0.02 μM vs DMSO) was 0.9, the MFI ([3]; Sildenafil 0.02 μM) was 9354 and the “Stabilization ratio with Sildenafil” value ([3]; Sildenafil 0.05 μM vs DMSO) was 1.0. For the same substance, the MFI ([3]; Sildenafil 0.05 μM) was 10120, the “Stabilization ratio with Sildenafil” value ([3]; Sildenafil 0.14 μM vs DMSO) was 1.0 and the MFI ([3]; Sildenafil 0.14 μM) was 10128. For the same substance, the “Stabilization ratio with Sildenafil” value ([3]; Sildenafil 0.41 μM vs DMSO) was 1.0, the MFI ([3]; Sildenafil 0.41 μM) was 10207 and the “Stabilization ratio with Sildenafil” value ([3]; Sildenafil 1.23 μM vs DMSO) was 1.2. The MFI ([3]; Sildenafil 1.23 μM) was 12328, the “Stabilization ratio with Sildenafil” value ([3]; Sildenafil 3.70 μM vs DMSO) was 1.7 and the MFI ([3]; Sildenafil 3.70 μM) was 17466. The “Stabilization ratio with Sildenafil” value ([3]; Sildenafil 11.11 μM vs DMSO) was 2.6, the MFI ([3]; Sildenafil 11.11 μM) was 26947 and the “Stabilization ratio with Sildenafil” value ([3]; Sildenafil 33.33 μM vs DMSO) was 4.6. The MFI ([3]; Sildenafil 33.33 μM) was 46897, the “Stabilization ratio with Sildenafil” value ([3]; Sildenafil 100.00 μM vs DMSO) was 5.1 and the MFI ([3]; Sildenafil 100.00 μM) was 51774. It also gave a Basal expression ([3]; Table 26, MFI with DMSO / parental HCT116, Sildenafil experiment) of 7.9.
